As usually defined, the IC50 is the point on the concentration scale where inhibition reaches its midpoint. A high value points to weaker potency. Broadly, the Kd is a measure of binding affinity in units of concentration.

Consider twelve compounds from patent publication US20250368666A1, “INDAZOLE COMPOUNDS” (TYRA BIOSCIENCES, INC., priority 2022, published 2025).

The test system of test [1] is KATO-III cell line (FGFR2 amplification). Nature of the test: Cancer cell line cell viability assay (Cell Titer-Glo), 72 hr. To be noted: Homo sapiens, KATO III. The format is cell-based. The method in brief:
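Luminescent ATP read-out (Cell Titer-Glo 2.0) after compound exposure, normalised to DMSO-only wells. Dosing: 9 concentrations, 4-fold steps, top 3 μM, triplicates. IC50 derived by log(inhibitor) vs. response 4-parameter fit.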
On the technique in general: In ATP-based viability assays light output follows the ATP content of the culture.

Test [2] has as its system RT112/84 cell line (FGFR3-fusion). The test is described as above. Format: cell-based. Conditions: Homo sapiens, RT112/84, RT112/84 cell line (FGFR3-fusion). A digest of the protocol: (§1)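 Cells seeded at 5,000-20,000/well, incubated overnight, then treated with a 9-dose, 4-fold dilution series from 3 μM in triplicate at 37° C, 5% CO2. Viability read by Cell Titer-Glo 2.0 luminescence as percent of DMSO control; IC50 from 4-parameter variable-slope sigmoidal fit.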

The test system of test [3] is KG-1 cell line (FGFR 1-fusion). The test is described as above. The format is cell-based. To be noted: Homo sapiens, KG-1, KG-1 cell line (FGFR1-fusion). A digest of the protocol:
as §1

For test [4], the system named is HuH7 cell line (FGF19 amplification). Kind of test: Cancer cell line cell viability assay (Cell Titer-Glo), 120 hr. Format: cell-based. To be noted: Homo sapiens, Huh-7. A digest of the protocol:
as §1

A further test concerns the target T1, FGFR3 (V555M) (Homo sapiens, UniProt P22607, V555M).
T1 construct: made in house; host or cells: E. coli (BL21-derived), T7 phage
Nature of the test: Kinase binding assay (kinase-tagged T7 phage, affinity beads, qPCR), Kd. Conditions: V555M mutant; read-out: FGFR3 (V555M) (Kd nM). The method in brief: (§2)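 First, phage lysates carrying tagged kinase are made in E. coli at 32° C. Next, they are combined with blocked biotin-ligand streptavidin beads and compound at 0.9% final DMSO. Finally, eluted kinase is measured by qPCR and Kd is fitted with the Hill equation.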
Background: Quantitative PCR measures a nucleic acid by following its amplification.

Another test has as its target T2, FGFR1 (Homo sapiens, UniProt P11362).
T2 construct: made in house; host or cells: E. coli (BL21-derived), T7 phage
Described as above. To be noted: read-out: FGFR1 (Kd nM). A digest of the protocol:
as §2

In the next test the target is T3, FGFR4 (Homo sapiens, UniProt P22455).
T3 construct: made in house; host or cells: E. coli (BL21-derived), T7 phage
T3 sequence (P22455 22-802): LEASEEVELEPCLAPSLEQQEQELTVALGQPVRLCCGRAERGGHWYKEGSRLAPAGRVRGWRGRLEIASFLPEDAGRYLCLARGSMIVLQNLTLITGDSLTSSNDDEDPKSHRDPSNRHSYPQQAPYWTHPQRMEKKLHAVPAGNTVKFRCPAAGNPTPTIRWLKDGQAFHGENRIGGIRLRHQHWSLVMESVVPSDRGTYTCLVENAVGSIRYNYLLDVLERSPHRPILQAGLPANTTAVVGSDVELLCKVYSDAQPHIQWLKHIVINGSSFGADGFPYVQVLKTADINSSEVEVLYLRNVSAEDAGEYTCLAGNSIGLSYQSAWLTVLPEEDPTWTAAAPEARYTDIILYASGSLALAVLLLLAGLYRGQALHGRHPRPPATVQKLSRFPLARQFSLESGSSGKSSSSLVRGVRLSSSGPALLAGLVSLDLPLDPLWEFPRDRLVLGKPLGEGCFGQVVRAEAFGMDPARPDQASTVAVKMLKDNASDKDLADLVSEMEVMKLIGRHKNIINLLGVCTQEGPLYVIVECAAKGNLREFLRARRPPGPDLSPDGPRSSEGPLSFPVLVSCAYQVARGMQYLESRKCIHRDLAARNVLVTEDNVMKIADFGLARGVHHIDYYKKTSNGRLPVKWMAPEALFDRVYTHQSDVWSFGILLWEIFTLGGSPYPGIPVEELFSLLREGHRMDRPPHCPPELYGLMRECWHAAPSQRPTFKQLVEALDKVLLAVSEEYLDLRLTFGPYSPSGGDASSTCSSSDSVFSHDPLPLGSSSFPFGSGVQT
Described as above. To be noted: read-out: FGFR4 (Kd nM). A digest of the protocol:
as §2

In a further test the target is T4, FGFR2 (Homo sapiens, UniProt P21802).
T4 construct: made in house; host or cells: E. coli (BL21-derived), T7 phage
T4 sequence (P21802 22-821): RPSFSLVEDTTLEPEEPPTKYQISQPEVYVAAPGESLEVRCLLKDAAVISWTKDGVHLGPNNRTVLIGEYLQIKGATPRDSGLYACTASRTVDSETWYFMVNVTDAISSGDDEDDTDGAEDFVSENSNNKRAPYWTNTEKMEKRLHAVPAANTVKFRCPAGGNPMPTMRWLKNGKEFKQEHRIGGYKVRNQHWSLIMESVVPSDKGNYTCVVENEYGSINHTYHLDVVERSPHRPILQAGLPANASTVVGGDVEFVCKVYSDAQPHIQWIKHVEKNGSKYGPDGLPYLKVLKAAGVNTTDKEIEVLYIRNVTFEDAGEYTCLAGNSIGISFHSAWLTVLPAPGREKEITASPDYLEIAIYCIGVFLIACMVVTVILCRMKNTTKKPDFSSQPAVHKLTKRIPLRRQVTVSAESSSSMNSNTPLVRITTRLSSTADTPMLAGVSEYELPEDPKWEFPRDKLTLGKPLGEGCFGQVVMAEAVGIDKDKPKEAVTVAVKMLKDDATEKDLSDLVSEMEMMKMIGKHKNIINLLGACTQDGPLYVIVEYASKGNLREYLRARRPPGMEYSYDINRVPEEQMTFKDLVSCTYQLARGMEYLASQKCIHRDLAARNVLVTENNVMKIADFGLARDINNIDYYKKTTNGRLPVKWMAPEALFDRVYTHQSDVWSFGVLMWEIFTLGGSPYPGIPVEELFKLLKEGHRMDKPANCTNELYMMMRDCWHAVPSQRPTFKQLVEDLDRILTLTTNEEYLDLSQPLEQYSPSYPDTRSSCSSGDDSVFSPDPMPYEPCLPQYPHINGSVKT
The description is as above. Conditions: read-out: FGFR2 (Kd nM). A digest of the protocol:
as §2

The target in another test is T5, FGFR3 (Homo sapiens, UniProt P22607).
T5 construct: made in house; host or cells: E. coli (BL21-derived), T7 phage
T5 sequence (P22607 23-806): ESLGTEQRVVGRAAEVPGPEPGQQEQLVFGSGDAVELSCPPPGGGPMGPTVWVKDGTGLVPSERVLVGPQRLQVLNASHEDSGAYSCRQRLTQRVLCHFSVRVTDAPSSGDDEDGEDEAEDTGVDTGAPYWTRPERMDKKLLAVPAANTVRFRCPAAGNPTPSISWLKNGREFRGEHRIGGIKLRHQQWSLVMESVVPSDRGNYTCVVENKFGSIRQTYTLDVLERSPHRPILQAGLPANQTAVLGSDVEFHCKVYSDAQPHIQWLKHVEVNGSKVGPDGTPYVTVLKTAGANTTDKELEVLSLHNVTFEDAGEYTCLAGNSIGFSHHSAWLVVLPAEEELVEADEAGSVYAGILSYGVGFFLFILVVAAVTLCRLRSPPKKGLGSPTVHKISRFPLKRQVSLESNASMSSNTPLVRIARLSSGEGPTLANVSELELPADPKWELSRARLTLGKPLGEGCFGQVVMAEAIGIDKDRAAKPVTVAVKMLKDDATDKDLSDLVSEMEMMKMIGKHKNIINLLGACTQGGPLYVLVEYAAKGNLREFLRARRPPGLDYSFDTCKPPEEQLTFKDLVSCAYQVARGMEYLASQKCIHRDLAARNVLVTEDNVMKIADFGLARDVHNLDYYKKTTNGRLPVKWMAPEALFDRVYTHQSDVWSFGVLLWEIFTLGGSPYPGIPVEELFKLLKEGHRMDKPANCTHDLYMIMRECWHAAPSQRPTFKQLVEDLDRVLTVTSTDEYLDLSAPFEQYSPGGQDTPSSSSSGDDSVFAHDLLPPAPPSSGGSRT
The test is described as above. To be noted: read-out: FGFR3 (Kd nM). The method in brief: as §2

T2 sequence (P11362 22-822): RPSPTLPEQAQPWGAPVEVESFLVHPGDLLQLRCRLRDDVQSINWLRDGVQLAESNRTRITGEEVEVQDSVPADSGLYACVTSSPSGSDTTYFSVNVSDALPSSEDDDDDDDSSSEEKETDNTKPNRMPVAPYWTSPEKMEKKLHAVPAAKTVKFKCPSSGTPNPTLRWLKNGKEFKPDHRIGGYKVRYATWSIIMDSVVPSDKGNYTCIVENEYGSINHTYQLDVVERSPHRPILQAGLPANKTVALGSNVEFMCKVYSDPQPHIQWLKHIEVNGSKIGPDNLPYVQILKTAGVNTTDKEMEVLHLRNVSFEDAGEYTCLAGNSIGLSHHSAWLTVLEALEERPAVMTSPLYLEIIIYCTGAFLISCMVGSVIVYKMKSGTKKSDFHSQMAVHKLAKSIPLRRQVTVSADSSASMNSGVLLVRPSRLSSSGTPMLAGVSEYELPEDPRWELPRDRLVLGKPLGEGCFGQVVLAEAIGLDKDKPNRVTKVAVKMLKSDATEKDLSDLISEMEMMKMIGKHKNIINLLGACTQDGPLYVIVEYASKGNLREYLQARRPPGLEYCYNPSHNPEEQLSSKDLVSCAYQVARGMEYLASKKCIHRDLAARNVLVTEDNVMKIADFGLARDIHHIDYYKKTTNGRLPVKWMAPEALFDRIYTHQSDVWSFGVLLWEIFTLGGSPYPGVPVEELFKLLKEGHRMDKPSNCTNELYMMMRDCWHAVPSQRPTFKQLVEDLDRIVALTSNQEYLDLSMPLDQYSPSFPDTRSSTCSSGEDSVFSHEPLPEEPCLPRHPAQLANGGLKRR
T1 sequence (P22607 23-806 V555M): as the sequence (P22607 23-806) above, with V533M counted along it

For the compound `COc1cc2[nH]nc(-c3cnc(N4CC(C)(N5CC(C)(OC)C5)C4)c(C#N)c3)c2cc1O[C@H](C)c1c(Cl)cncc1Cl` [Example 101, (R)-5-(5-(1-(3,5-dichloropyridin-4-yl)ethoxy)-6-methoxy-1H-indazol-3-yl)-2-(3-methoxy-3,3′-dimethyl-[1,3′-biazetidin]-1′-yl)nicotinonitrile], the IC50 in test [1] fell in the range of 0.1 to 50 nM; in test [2], 0.1 to 50 nM; in test [3], 50 to 200 nM; in test [4], 0.1 to 50 nM. Moreover, the Kd on FGFR3 (V555M), on FGFR1, at FGFR4, at FGFR2 and at FGFR3 was 1 to 50 nM each time.
As for `C[C@@H](Oc1ccc2[nH]nc(-c3cnc(N4CC(C)(NCC(C)(C)O)C4)c(C#N)c3)c2c1)c1c(Cl)cncc1Cl` [Example 54, (R)-5-(5-(1-(3,5-dichloropyridin-4-yl)ethoxy)-1H-indazol-3-yl)-2-(3-((2-hydroxy-2-methylpropyl)amino)-3-methylazetidin-1-yl)nicotinonitrile], the IC50 in test [1] lay within 200 to 1000 nM; in test [2] it was 50 to 200 nM; in [3], 200 to 1000 nM; in test [4], 0.1 to 50 nM. For the same compound, the Kd at FGFR3 (V555M), on FGFR1, on FGFR4, on FGFR2 and at FGFR3 was 1 to 50 nM in each case.
Consider `COc1cc2[nH]nc(-c3cnc(N4CC(C)(NCC(C)C)C4)c(C#N)c3)c2cc1O[C@H](C)c1c(Cl)cncc1Cl` [Example 139, (R)-5-(5-(1-(3,5-dichloropyridin-4-yl)ethoxy)-6-methoxy-1H-indazol-3-yl)-2-(3-(isobutylamino)-3-methylazetidin-1-yl)nicotinonitrile], for which the IC50 is 50 to 200 nM in [1], 0.1 to 50 nM in test [2], 50 to 200 nM in [3] and 0.1 to 50 nM in [4]. Also, the Kd on FGFR3 (V555M), on FGFR1, on FGFR4, at FGFR2 and at FGFR3 was 1 to 50 nM throughout.
As to `COc1cc2[nH]nc(-c3cnc(N4CC(C)(N(C)C)C4)nc3)c2cc1O[C@H](C)c1c(Cl)cncc1Cl` [Example 51, (R)-1-(5-(5-(1-(3,5-dichloropyridin-4-yl)ethoxy)-6-methoxy-1H-indazol-3-yl)pyrimidin-2-yl)-N,N,3-trimethylazetidin-3-amine], the IC50 in [1], in test [2], in [3] and in [4] was 0.1 to 50 nM each time. Besides, the Kd at FGFR3 (V555M), at FGFR1, at FGFR4, on FGFR2 and at FGFR3 was 1 to 50 nM in each case.
For the compound `COc1cc2[nH]nc(-c3cnc(N4CC(C)(N5CCC5)C4)c(C#N)c3)c2cc1O[C@H](C)c1c(Cl)cncc1Cl` [Example 26, (R)-5-(5-(1-(3,5-dichloropyridin-4-yl)ethoxy)-6-methoxy-1H-indazol-3-yl)-2-(3′-methyl-[1,3′-biazetidin]-1′-yl)nicotinonitrile], the IC50 in test [1] is 50 to 200 nM; in test [2], 0.1 to 50 nM; in test [3], 0.1 to 50 nM; in [4], 0.1 to 50 nM. For the same compound, the Kd on FGFR3 (V555M), at FGFR1, at FGFR4, on FGFR2 and at FGFR3 was 1 to 50 nM in each case.
With `COc1cc2[nH]nc(-c3cnc(N4CC(C)(N5CC6CC(C5)O6)C4)c(C#N)c3)c2cc1O[C@H](C)c1c(Cl)cncc1Cl` [Example 337, 2-(3-(6-oxa-3-aza-bicyclo[3.1.1]hep-tan-3-yl)-3-methylazetidin-1-yl)-5-(5-((R)-1-(3,5-dichloropyridin-4-yl)ethoxy)-6-methoxy-1H-indazol-3-yl)nicotinonitrile], the IC50 lay in the range of 50 to 200 nM in [1], 0.1 to 50 nM in test [2], 50 to 200 nM in test [3] and 0.1 to 50 nM in [4]. For the same compound, the Kd on FGFR3 (V555M), on FGFR1, on FGFR4, on FGFR2 and on FGFR3 was 1 to 50 nM each time.
For the compound `COc1cc2[nH]nc(-c3cnc(N4CC(C)(NCC(F)F)C4)c(C#N)c3)c2cc1O[C@H](C)c1c(Cl)cncc1Cl` [Example 42, 5-[5-[(1R)-1-(3,5-dichloro-4-pyridyl)ethoxy]-6-methoxy-1H-indazol-3-yl]-2-[3-(2,2-difluoroethylamino)-3-methyl-azetidin-1-yl]pyridine-3-carbonitrile], the IC50 was 50 to 200 nM in [1], 0.1 to 50 nM in test [2], 50 to 200 nM in test [3] and 0.1 to 50 nM in test [4]. For the same compound, the Kd at FGFR3 (V555M), on FGFR1, at FGFR4, at FGFR2 and at FGFR3 was 1 to 50 nM throughout.
Turning to `COc1cc2[nH]nc(-c3cnc(N4CC(C)(NCCO)C4)c(C#N)c3)c2cc1O[C@H](C)c1c(Cl)cncc1Cl` [Example 47, 5-[5-[(1R)-1-(3,5-dichloro-4-pyridyl)ethoxy]-6-methoxy-1H-indazol-3-yl]-2-[3-(2-hydroxyethylamino)-3-methyl-azetidin-1-yl]pyridine-3-carbonitrile], the IC50 in test [1] is 50 to 200 nM; in test [2], 50 to 200 nM; in test [3], 200 to 1000 nM; in [4], 0.1 to 50 nM. Also, the Kd at FGFR3 (V555M), on FGFR1, on FGFR4, on FGFR2 and on FGFR3 was 1 to 50 nM in each case.
`CC(C)OCCNC1(C)CN(c2ncc(-c3n[nH]c4ccc(O[C@H](C)c5c(Cl)cncc5Cl)cc34)cc2C#N)C1` [Example 98, (R)-5-(5-(1-(3,5-dichloropyridin-4-yl)ethoxy)-1H-indazol-3-yl)-2-(3-((2-isopropoxyethyl)amino)-3-methylazetidin-1-yl)nicotinonitrile]: the IC50 in test [1] fell in the range of 200 to 1000 nM; in test [2], 50 to 200 nM; in test [3], 200 to 1000 nM; in [4], 50 to 200 nM. In addition, the Kd at FGFR3 (V555M) lay in the range of 1 to 50 nM; at FGFR1, 50 to 300 nM; on FGFR4 it was 1 to 50 nM; at FGFR2, 50 to 300 nM; at FGFR3 it was 1 to 50 nM.
As for `C[C@@H](Oc1cc2c(-c3cnc(N4CC(C)(N5CCCC5)C4)c(C#N)c3)n[nH]c2cc1F)c1c(Cl)cncc1Cl` [Example 135, (R)-5-(5-(1-(3,5-dichloropyridin-4-yl)ethoxy)-6-fluoro-1H-indazol-3-yl)-2-(3-methyl-3-(pyrrolidin-1-yl)azetidin-1-yl)nicotinonitrile], the IC50 in test [1] fell in the range of 200 to 1000 nM; in [2] it was 50 to 200 nM; in [3], 200 to 1000 nM; in test [4] it was 50 to 200 nM. The Kd on FGFR3 (V555M) fell in the range of 1 to 50 nM; at FGFR1, 50 to 300 nM; at FGFR4, 1 to 50 nM; on FGFR2, 1 to 50 nM; on FGFR3 it was 1 to 50 nM.
`C[C@@H](Oc1ccc2[nH]nc(-c3cnc(N4CC(C)(CN(C)S(C)(=O)=O)C4)c(C#N)c3)c2c1)c1c(Cl)cncc1Cl` [Example 23, (R)-N-((1-(3-cyano-5-(5-(1-(3,5-dichloropyridin-4-yl)ethoxy)-1H-indazol-3-yl)pyridin-2-yl)-3-methylazetidin-3-yl)methyl)-N-methylmethanesulfona-mide]: the concentration for half-maximal inhibition (IC50) fell in the range of 200 to 1000 nM in test [1], 50 to 200 nM in test [2], 200 to 1000 nM in [3] and 0.1 to 50 nM in [4]. The Kd on FGFR3 (V555M), on FGFR1, on FGFR4, on FGFR2 and on FGFR3 was 1 to 50 nM in each case.
With `COc1cc2[nH]nc(-c3cnc(N4CC(C)(C)C4)nc3)c2cc1O[C@H](C)c1c(Cl)cncc1Cl` [Example 61, 5-[(1R)-1-(3,5-dichloro-4-pyridyl)ethoxy]-3-[2-(3,3-dimethylazetidin-1-yl)pyrimidin-5-yl]-6-methoxy-1H-indazole], the IC50 fell in the range of 50 to 200 nM in test [1], 0.1 to 50 nM in [2], 50 to 200 nM in test [3] and 0.1 to 50 nM in test [4]. The Kd on FGFR3 (V555M), at FGFR1, at FGFR4, on FGFR2 and at FGFR3 was 1 to 50 nM in each case.
